Source: patent US20100003191A1, “AURONE DERIVATIVE-CONTAINING COMPOSITION FOR DIAGNOSIS” (NAGASAKI UNIVERSITY, priority 2006, published 2010)

Experiment: In vivo radioactivity biodistribution experiment in normal mice (Example 1, Table 13)
Parameters: species or system ddY mice
Protocol: ^125I-labeled compounds were diluted with 10% ethanol-containing physiological saline. […] After their blood was collected, organs were removed, and the weights and radioactivities thereof were measured.
When any of the aurone derivatives was used, sufficient radioactivity to perform imaging of intracerebral amyloid migrated to the brain from the early stage of injection (1.7-4.6% ID/g). […] It was also shown that, in any of the aurone derivatives, in vivo radioactivity behavior is discharged mainly from the liver to the bile duct and the intestinal tract.

| Biodistribution of radioactivity, Blood (2 min after injection) | Biodistribution of radioactivity, Blood (10 min after injection) | Biodistribution of radioactivity, Blood (30 min after injection) | Biodistribution of radioactivity, Blood (60 min after injection) | Biodistribution of radioactivity, Brain (2 min after injection) | Biodistribution of radioactivity, Brain (10 min after injection) | Biodistribution of radioactivity, Brain (30 min after injection) | Biodistribution of radioactivity, Brain (60 min after injection) | Biodistribution of radioactivity, Heart (2 min after injection) | Biodistribution of radioactivity, Heart (10 min after injection) | Biodistribution of radioactivity, Heart (30 min after injection) | Biodistribution of radioactivity, Heart (60 min after injection) | Biodistribution of radioactivity, Intestine (2 min after injection) | Biodistribution of radioactivity, Intestine (10 min after injection) | Biodistribution of radioactivity, Intestine (30 min after injection) | Biodistribution of radioactivity, Intestine (60 min after injection) | Biodistribution of radioactivity, Kidney (2 min after injection) | Biodistribution of radioactivity, Kidney (10 min after injection) | Biodistribution of radioactivity, Kidney (30 min after injection) | Biodistribution of radioactivity, Kidney (60 min after injection) | Structure (SMILES) | further results |
| --- | --- | --- | --- | --- | --- | --- | --- | --- | --- | --- | --- | --- | --- | --- | --- | --- | --- | --- | --- | --- | --- |
| 4.16 (0.98) % injected dose per gram | 2.72 (1.01) % injected dose per gram | 2.84 (1.48) % injected dose per gram | 2.41 (0.70) % injected dose per gram | 3.17 (0.45) % injected dose per gram | 1.22 (0.09) % injected dose per gram | 0.32 (0.02) % injected dose per gram | 0.24 (0.05) % injected dose per gram | 5.07 (0.47) % injected dose per gram | 2.17 (0.34) % injected dose per gram | 0.98 (0.21) % injected dose per gram | 0.84 (0.37) % injected dose per gram | 3.06 (1.11) % injected dose per gram | 6.59 (3.43) % injected dose per gram | 10.34 (4.91) % injected dose per gram | 14.04 (2.87) % injected dose per gram | 9.91 (2.00) % injected dose per gram | 11.44 (2.76) % injected dose per gram | 6.00 (2.14) % injected dose per gram | 3.52 (0.77) % injected dose per gram | CNc1ccc(/C=C2\Oc3ccc([125I])cc3C2=O)cc1 [[^125I]12] | Biodistribution of radioactivity, Liver (2 min after injection): 11.26 (2.81) % injected dose per gram; Biodistribution of radioactivity, Liver (10 min after injection): 9.70 (2.78) % injected dose per gram; Biodistribution of radioactivity, Liver (30 min after injection): 6.11 (2.16) % injected dose per gram; Biodistribution of radioactivity, Liver (60 min after injection): 4.91 (0.72) % injected dose per gram; Biodistribution of radioactivity, Lung (2 min after injection): 6.86 (0.65) % injected dose per gram; Biodistribution of radioactivity, Lung (10 min after injection): 4.44 (0.39) % injected dose per gram; Biodistribution of radioactivity, Lung (30 min after injection): 2.41 (0.66) % injected dose per gram; Biodistribution of radioactivity, Lung (60 min after injection): 2.94 (0.62) % injected dose per gram; Biodistribution of radioactivity, Pancreas (2 min after injection): 4.83 (0.60) % injected dose per gram; Biodistribution of radioactivity, Pancreas (10 min after injection): 1.81 (0.15) % injected dose per gram; Biodistribution of radioactivity, Pancreas (30 min after injection): 0.83 (0.10) % injected dose per gram; Biodistribution of radioactivity, Pancreas (60 min after injection): 0.77 (0.28) % injected dose per gram; Biodistribution of radioactivity, Spleen (2 min after injection): 2.37 (0.41) % injected dose per gram; Biodistribution of radioactivity, Spleen (10 min after injection): 1.28 (0.19) % injected dose per gram; Biodistribution of radioactivity, Spleen (30 min after injection): 0.86 (0.14) % injected dose per gram; Biodistribution of radioactivity, Spleen (60 min after injection): 0.75 (0.17) % injected dose per gram; Biodistribution of radioactivity, Stomach (2 min after injection): 1.30 (0.43) % injected dose per organ; Biodistribution of radioactivity, Stomach (10 min after injection): 2.53 (0.97) % injected dose per organ; Biodistribution of radioactivity, Stomach (30 min after injection): 2.82 (1.88) % injected dose per organ; Biodistribution of radioactivity, Stomach (60 min after injection): 2.26 (0.88) % injected dose per organ |
| 3.14 (0.73) % injected dose per gram | 2.77 (0.28) % injected dose per gram | 1.75 (0.38) % injected dose per gram | 0.87 (0.28) % injected dose per gram | 3.07 (0.39) % injected dose per gram | 1.48 (0.19) % injected dose per gram | 0.37 (0.07) % injected dose per gram | 0.14 (0.12) % injected dose per gram | 6.23 (0.63) % injected dose per gram | 2.57 (0.41) % injected dose per gram | 0.98 (0.14) % injected dose per gram | 0.42 (0.09) % injected dose per gram | 2.11 (0.75) % injected dose per gram | 6.12 (0.83) % injected dose per gram | 12.67 (2.13) % injected dose per gram | 14.87 (5.42) % injected dose per gram | 11.08 (2.96) % injected dose per gram | 11.22 (2.26) % injected dose per gram | 5.82 (1.11) % injected dose per gram | 2.43 (1.04) % injected dose per gram | O=C1/C(=C/c2ccc(O)cc2)Oc2ccc([125I])cc21 [[^125I]20] | Biodistribution of radioactivity, Liver (2 min after injection): 6.05 (1.49) % injected dose per gram; Biodistribution of radioactivity, Liver (10 min after injection): 6.63 (1.08) % injected dose per gram; Biodistribution of radioactivity, Liver (30 min after injection): 4.23 (0.63) % injected dose per gram; Biodistribution of radioactivity, Liver (60 min after injection): 4.45 (3.14) % injected dose per gram; Biodistribution of radioactivity, Lung (2 min after injection): 6.69 (0.86) % injected dose per gram; Biodistribution of radioactivity, Lung (10 min after injection): 3.14 (0.23) % injected dose per gram; Biodistribution of radioactivity, Lung (30 min after injection): 1.62 (0.22) % injected dose per gram; Biodistribution of radioactivity, Lung (60 min after injection): 0.80 (0.19) % injected dose per gram; Biodistribution of radioactivity, Pancreas (2 min after injection): 5.28 (0.99) % injected dose per gram; Biodistribution of radioactivity, Pancreas (10 min after injection): 2.65 (0.64) % injected dose per gram; Biodistribution of radioactivity, Pancreas (30 min after injection): 0.92 (0.19) % injected dose per gram; Biodistribution of radioactivity, Pancreas (60 min after injection): 0.36 (0.09) % injected dose per gram; Biodistribution of radioactivity, Spleen (2 min after injection): 2.18 (0.48) % injected dose per gram; Biodistribution of radioactivity, Spleen (10 min after injection): 1.36 (0.15) % injected dose per gram; Biodistribution of radioactivity, Spleen (30 min after injection): 0.69 (0.14) % injected dose per gram; Biodistribution of radioactivity, Spleen (60 min after injection): 0.42 (0.02) % injected dose per gram; Biodistribution of radioactivity, Stomach (2 min after injection): 1.30 (0.43) % injected dose per organ; Biodistribution of radioactivity, Stomach (10 min after injection): 2.53 (0.97) % injected dose per organ; Biodistribution of radioactivity, Stomach (30 min after injection): 2.82 (1.88) % injected dose per organ; Biodistribution of radioactivity, Stomach (60 min after injection): 2.26 (0.88) % injected dose per organ |
| 2.69 (0.29) % injected dose per gram | 1.96 (0.34) % injected dose per gram | 1.48 (0.15) % injected dose per gram | 0.94 (0.25) % injected dose per gram | 1.89 (0.38) % injected dose per gram | 0.69 (0.21) % injected dose per gram | 0.26 (0.04) % injected dose per gram | 0.11 (0.03) % injected dose per gram | 3.80 (0.66) % injected dose per gram | 1.36 (0.66) % injected dose per gram | 0.55 (0.29) % injected dose per gram | 0.45 (0.11) % injected dose per gram | 1.65 (0.35) % injected dose per gram | 5.37 (1.10) % injected dose per gram | 9.50 (1.45) % injected dose per gram | 11.85 (2.70) % injected dose per gram | 7.84 (1.92) % injected dose per gram | 8.31 (3.19) % injected dose per gram | 10.37 (2.34) % injected dose per gram | 4.51 (1.43) % injected dose per gram | CN(C)c1ccc(/C=C2\Oc3ccc([125I])cc3C2=O)cc1 [[^125I]7] | Biodistribution of radioactivity, Liver (2 min after injection): 10.21 (1.87) % injected dose per gram; Biodistribution of radioactivity, Liver (10 min after injection): 7.86 (2.25) % injected dose per gram; Biodistribution of radioactivity, Liver (30 min after injection): 5.60 (0.59) % injected dose per gram; Biodistribution of radioactivity, Liver (60 min after injection): 4.33 (0.76) % injected dose per gram; Biodistribution of radioactivity, Lung (2 min after injection): 4.02 (0.83) % injected dose per gram; Biodistribution of radioactivity, Lung (10 min after injection): 2.44 (0.54) % injected dose per gram; Biodistribution of radioactivity, Lung (30 min after injection): 1.51 (0.41) % injected dose per gram; Biodistribution of radioactivity, Lung (60 min after injection): 1.17 (0.26) % injected dose per gram; Biodistribution of radioactivity, Pancreas (2 min after injection): 3.17 (0.68) % injected dose per gram; Biodistribution of radioactivity, Pancreas (10 min after injection): 1.04 (0.25) % injected dose per gram; Biodistribution of radioactivity, Pancreas (30 min after injection): 0.55 (0.21) % injected dose per gram; Biodistribution of radioactivity, Pancreas (60 min after injection): 0.30 (0.06) % injected dose per gram; Biodistribution of radioactivity, Spleen (2 min after injection): 1.76 (0.28) % injected dose per gram; Biodistribution of radioactivity, Spleen (10 min after injection): 0.81 (0.54) % injected dose per gram; Biodistribution of radioactivity, Spleen (30 min after injection): 0.51 (0.10) % injected dose per gram; Biodistribution of radioactivity, Spleen (60 min after injection): 0.37 (0.11) % injected dose per gram; Biodistribution of radioactivity, Stomach (2 min after injection): 1.21 (0.29) % injected dose per organ; Biodistribution of radioactivity, Stomach (10 min after injection): 1.35 (1.25) % injected dose per organ; Biodistribution of radioactivity, Stomach (30 min after injection): 1.87 (0.79) % injected dose per organ; Biodistribution of radioactivity, Stomach (60 min after injection): 1.51 (1.04) % injected dose per organ |
